Experimental data: patent US9605026B2, “Hydrogen-bond surrogate peptides and peptidomimetics for p53 reactivation” (New York University, priority 2013, dated 2017)

Columns and labels:
Assay type in all cases: cell-based, human
[1] = test system: p300, p53, and p53-regulated genes; test: qPCR expression of p300, p53, p21, miR-34a, miR-200c in UMSCC74A cells; conditions: 10 μM, 24 hours
Text: FIG. 5A is an schematic illustration showing that CH1 has two distinct target sites. HIF1-α/p300 structures were used as guides to design helix mimetics that target site A and site B on the CH1 domain of p300. […] CH1iA (SEQ ID NO: 7) and CH1iB (SEQ ID NO: 8) were designed to mimic two helices from the C-terminal domain of HIF-1α. The peptides were locked into the helical conformation by the hydrogen bond surrogate method. FIG. 5C is a graph of p53 activity. UMSCC47 (left) and UMSCC74A (right) cells were co-transfected with a p53 Firefly luciferase reporter plasmid and a control Renilla luciferase plasmid. After 24 hours, cells were treated with control (vehicle), CH1iA (10 μM), or CH1iB (10 μM) for 24 hours. […] UMSCC47 (top panel) and UMSCC74A (bottom panel) cells were treated with control (vehicle), CH1iA (10 μM), or CH1iB (10 μM) for 24 hours. mRNA expression was determined using qPCR with validated TaqMan assays. […]
Cells were extracted for total RNA using the TRIzol® reagent (Invitrogen) or TaqMan PreAmp Cells-to-CT kit (Applied Biosystems). Expression of p300, p53, p21, miR-34a and miR-200c were determined using the Applied Biosystems 7900HT Fast Real-Time PCR System with validated TaqMan gene expression assays (Applied Biosystems). p53, p300, and p21 expression were normalized to GADPH and miR-34a and miR-200c expression were normalized to RNU44 using the ΔΔCt method.

[2] = test system: UMSCC47 cells; test: Cell proliferation (MTT) in UMSCC47 cells; conditions: for cell proliferation, single-agent: UMSCC47, 10 μM, 24-72 hours
Text: (§1) FIG. 5A is an schematic illustration showing that CH1 has two distinct target sites. HIF1-α/p300 structures were used as guides to design helix mimetics that target site A and site B on the CH1 domain of p300. […] CH1iA (SEQ ID NO: 7) and CH1iB (SEQ ID NO: 8) were designed to mimic two helices from the C-terminal domain of HIF-1α. The peptides were locked into the helical conformation by the hydrogen bond surrogate method. FIG. 5C is a graph of p53 activity. UMSCC47 (left) and UMSCC74A (right) cells were co-transfected with a p53 Firefly luciferase reporter plasmid and a control Renilla luciferase plasmid. After 24 hours, cells were treated with control (vehicle), CH1iA (10 μM), or CH1iB (10 μM) for 24 hours. Firefly luciferase activity was normalized to Renilla luciferase activity to control for transfection efficiency. Data is normalized to control and presented as mean±SEM. *P<0.05, n=3. FIG. 5D is a western blot showing total and acetylated p53 levels. UMSCC47 (left) and UMSCC74A (right) cells were treated with control (vehicle), CH1iA (10 μM), or CH1iB (10 μM) for 24 hours. Cell lysates were immunoblotted with anti-p53 or anti-acetylated[K382]-p53 antibody. FIG. 5E is a pair of graphs of p300, p53, p21, miR-34a, and miR-200c expression. UMSCC47 (top panel) and UMSCC74A (bottom panel) cells were treated with control (vehicle), CH1iA (10 μM), or CH1iB (10 μM) for 24 hours. mRNA expression was determined using qPCR with validated TaqMan assays. Data is normalized to control cells and presented as mean±SEM. *P<0.01, control vs. CH1iB, n=3. FIG. 5F is a western blot showing HPV16 E6-p300 association. UMSCC47 cells were treated with control (vehicle), CH1iA (10 μM), or CH1iB (10 μM) for 24 hours. Cell lysates were extracted, immunoprecipitated with anti-p300 antibody, and immunoblotted with anti-E6 antibody. Cell lysates were immunoblotted with anti-E6 or anti-p300 antibody for input control. FIG. 5G is a set of graphs of cell proliferation. UMSCC47 (top left panel), UMSCC74A (top right panel), and IMR90 (human normal fibroblasts) (bottom panel) cells were treated with control (vehicle), CH1iA (10 μM), CH1iB (10 μM), cis-platinum (10 μM), CH1iA (10 μM) and cis-platinum (10 μM), or CH1iB (10 μM) and cis-platinum (10 μM) for 24, 48, or 72 hours. Data is normalized to Day 0 and presented as mean±SEM. *P<0.01, control vs. CH1iB or cis-platinum, **P<0.01 CH1iB or cis-platinum vs. CH1iB and cis-platinum, n=6.
FIG. 7A is a graph of p53 transcriptional activity. UMSCC47 cells were co-transfected with a p53 Firefly luciferase reporter plasmid and a control Renilla luciferase plasmid. After 24 hours, cells were treated with control (vehicle) or CH1iB-mut (10 μM) for 24 hours. Firefly luciferase activity was normalized to Renilla luciferase activity to control for transfection efficiency. Data is presented as mean±SEM. *P<0.05, n=5. FIG. 7B is a graph of cell proliferation. UMSCC47 cells were treated with control (vehicle), CH1iB-mut (10 μM), cis-platinum (10 μM), or CH1iB-mut (10 μM) and cis-platinum (10 μM) for 24 or 48 hours. Data is normalized to Day 0 and presented as mean±SEM. *P<0.01, control or CH1iB-mut vs. cis-platinum or cis-platinum+CH1iB-mut, n=6.
Cell proliferation was assessed using the MTT reagent (Roche Molecular Biochemicals, Nutley, N.J.) to detect metabolic active cells. Absorbance was measured at 570 nm in the Spectra Max 190 ELISA reader (Molecular Devices, Sunnyvale, Calif.) after overnight incubation. […]

[3] = test system: p53; test: Western blot of total and acetylated[K382] p53 in UMSCC47 cells; conditions: 24 hours; for acetylated p53 levels / p53 accumulation (total p53 level): UMSCC47, 10 μM
Text: as §1
FIG. 6A is a western blot showing total and acetylated p53 levels. UMSCC47 cells were treated with control (vehicle), CH1iB (10 μM), cis-platinum (10 μM), or CH1iB (10 μM) and cis-platinum (10 μM) for 24 hours. Cell lysates were immunoblotted with anti-p53 or anti-acetylated[K382]-p53 antibody. FIG. 6B is a graph of p53 transcriptional activity. UMSCC47 cells were co-transfected with a p53 Firefly luciferase reporter plasmid and a control Renilla luciferase plasmid. After 24 hours, cells were treated with control (vehicle), CH1iB (10 μM), cis-platinum (10 μM), or CH1iB (10 μM) and cis-platinum (10 μM) for 24 hours. Firefly luciferase activity was normalized to Renilla luciferase activity to control for transfection efficiency. Data is normalized to control and presented as mean±SEM. *P<0.01, control vs. CH1iB, cis-platinum or CH1iB+cis-platinum, **P<0.01 CH1iB or cis-platinum vs. CH1iB+cis-platinum, n=5. FIG. 6C is a graph of p300, p53, p21, miR-34a, and miR-200c expression. UMSCC47 cells were treated with control (vehicle), CH1iB (10 μM), cis-platinum (10 μM), or CH1iB (10 μM) and cis-platinum (10 μM) for 24 hours. mRNA expression was determined using qPCR with validated TaqMan assays. Data is normalized to control cells and presented as mean±SEM. *P<0.01, control vs. CH1iB, cis-platinum or CH1iB+cis-platinum, **P<0.01 CH1iB or cis-platinum vs. CH1iB+cis-platinum, n=3. FIG. 6D is a pair of graphs of apoptosis. […]

[4] = UMSCC47, CH1iB 10 μM with cis-platinum 10 μM

| Substance | Expression of p300, p53, and p53-regulated genes [1] | effect on anti-proliferative efficacy of cis-platinum (combination) ([2]; UMSCC47, 10 μM with cis-platinum 10 μM) | cell proliferation, single-agent [2] | acetylated p53 levels [3] | p53 accumulation (total p53 level) [3] | effect of cis-platinum on p53 accumulation [3, 4] | effect of cis-platinum on p53 acetylation [3, 4] |
| --- | --- | --- | --- | --- | --- | --- | --- |
| XELA*RALDQ-NH2 (ELXRALDQ; HBS: 4-pentenoic acid, N-allylalanine; C-terminal amide; CH1iB) [X 4-pentenoic acid, A* N-allylalanine] | unchanged | potentiated | inhibited | enhanced | enhanced | potentiated | potentiated |
| XTAA*DCEYNAR (TAXDCEYNAR; HBS: 4-pentenoic acid, N-allylalanine; CH1iA) [X 4-pentenoic acid, A* N-allylalanine, reference compound] | unchanged | – | inactive | no effect | no effect | – | – |
